Legend:
Assay type in all cases: biochemical
[1] = target: human JAK1 catalytic kinase (JH1) domain (Homo sapiens (Human), UniProt P23458); experiment: ADP-Glo Kinase Assay, recombinant JAK1 catalytic kinase (JH1) domain; conditions: recombinant JH1 domain 4 nM, 35 μM ATP, JAK3-342 peptide, mean, read-out: JAK1 biochem IC50 (nM) Mean
Method: (§1) Compounds of the disclosure were assessed for their ability to inhibit TYK2, JAK1, JAK2, and JAK3 activity. The inhibitory properties of the compounds of the disclosure described herein can be evidenced by testing in any one of the following protocols.
(§2) The kinase activity of recombinantly generated catalytic kinase (also known as JH1) domain of human JAK1, JAK2, JAK3 and TYK2 were evaluated in a plate-based assay using the ADP-Glo™ Kinase Assay platform. Specifically, 4 nM of recombinant JAK1 kinase domain is used to phosphorylate 50 μM of a JAK3-342 (sequence ALVDGYFRLTT) peptide in the presence of 35 μM ATP. Catalytic activities of recombinant JAK2, JAK3 and TYK2 kinase domain (0.2, 0.3 and 2 nM, respectively) are evaluated by the phosphorylation status of the JAK3-974 (50 μM; sequence LPLDKDYYVVR) peptide with the addition of ATP (15, 4 and 10 μM, respectively). The reactions proceed for 100 minutes and the catalytic activity is quantified by first depleting the unused ATP, converting the hydrolyzed ADP into ATP to generate luminescence in a luciferase reaction; which is the basis of the ADP-Glo platform. Compounds are tested at either 10 μM or 1 μM top concentration, 11 points of 3-fold dilution. The data is normalized and the percent activity versus log concentration of compound is fitted with a 4-parameter logistic model to generate a curve and an IC50 value.

[2] = target: human JAK2 catalytic kinase (JH1) domain (Homo sapiens (Human), UniProt O60674); experiment: ADP-Glo Kinase Assay, recombinant JAK2 catalytic kinase (JH1) domain; conditions: recombinant JH1 domain 0.2 nM, 15 μM ATP, JAK3-974 peptide, mean, read-out: JAK2 biochem IC50 (nM) Mean
Method: as §1, §2

[3] = target: human JAK3 catalytic kinase (JH1) domain (Homo sapiens (Human), UniProt P52333); experiment: ADP-Glo Kinase Assay, recombinant JAK3 catalytic kinase (JH1) domain; conditions: recombinant JH1 domain 0.3 nM, 4 μM ATP, JAK3-974 peptide, mean, read-out: JAK3 biochem IC50 (nM) Mean
Method: as §1, §2

[4] = target: human TYK2 catalytic kinase (JH1) domain (Homo sapiens (Human), UniProt P29597); experiment: ADP-Glo Kinase Assay, recombinant TYK2 catalytic kinase (JH1) domain; conditions: recombinant JH1 domain 2 nM, 10 μM ATP, JAK3-974 peptide, mean, read-out: TYK2 biochem IC50 (nM) Mean
Method: as §1, §2

Sequence of human JAK1 catalytic kinase (JH1) domain (P23458 875-1153): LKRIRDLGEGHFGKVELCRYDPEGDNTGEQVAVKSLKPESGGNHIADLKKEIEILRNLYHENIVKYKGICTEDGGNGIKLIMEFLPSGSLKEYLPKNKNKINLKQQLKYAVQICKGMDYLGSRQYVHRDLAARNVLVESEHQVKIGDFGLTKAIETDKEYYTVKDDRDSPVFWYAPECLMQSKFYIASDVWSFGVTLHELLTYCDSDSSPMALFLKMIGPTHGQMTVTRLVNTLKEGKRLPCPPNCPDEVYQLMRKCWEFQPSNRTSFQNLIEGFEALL
Sequence of human JAK2 catalytic kinase (JH1) domain (O60674 849-1124): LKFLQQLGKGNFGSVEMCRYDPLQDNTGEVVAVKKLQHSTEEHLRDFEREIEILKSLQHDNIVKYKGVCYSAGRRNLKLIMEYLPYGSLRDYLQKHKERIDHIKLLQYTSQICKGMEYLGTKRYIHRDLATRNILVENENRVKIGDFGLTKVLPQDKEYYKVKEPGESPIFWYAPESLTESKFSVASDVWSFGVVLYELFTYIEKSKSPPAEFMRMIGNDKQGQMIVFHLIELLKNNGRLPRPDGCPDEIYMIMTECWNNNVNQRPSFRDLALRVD
Sequence of human JAK3 catalytic kinase (JH1) domain (P52333 822-1111): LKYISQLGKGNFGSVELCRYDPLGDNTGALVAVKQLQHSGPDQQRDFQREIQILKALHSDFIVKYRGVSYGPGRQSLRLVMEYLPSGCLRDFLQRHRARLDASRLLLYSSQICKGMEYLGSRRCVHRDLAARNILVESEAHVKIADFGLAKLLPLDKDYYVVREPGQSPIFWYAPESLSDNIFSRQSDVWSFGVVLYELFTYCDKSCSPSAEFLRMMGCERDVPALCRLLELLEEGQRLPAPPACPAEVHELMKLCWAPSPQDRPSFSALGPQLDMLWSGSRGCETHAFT
Sequence of human TYK2 catalytic kinase (JH1) domain (P29597 897-1176): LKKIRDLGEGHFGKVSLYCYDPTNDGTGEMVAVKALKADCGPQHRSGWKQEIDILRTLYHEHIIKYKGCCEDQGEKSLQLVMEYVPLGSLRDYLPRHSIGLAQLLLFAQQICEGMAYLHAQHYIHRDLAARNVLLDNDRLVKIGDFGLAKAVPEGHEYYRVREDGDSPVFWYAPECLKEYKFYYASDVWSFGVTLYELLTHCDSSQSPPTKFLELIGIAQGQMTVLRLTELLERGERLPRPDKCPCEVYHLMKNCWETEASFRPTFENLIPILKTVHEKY

SMILES: Cn1cc(-c2cc3c(N4CC5CCC(C4)N5C(=O)[C@@H]4C[C@H]4F)ccnn3c2)cc(F)c1=O [Example 174]
- IC50 [1]: 149 nM
- IC50 [2]: 84 nM
- IC50 [3]: 1600 nM
- IC50 [4]: 6.6 nM

SMILES: O=C([C@H]1C[C@H]1F)N1C2CCC1CN(c1ncnn3cc(-c4cnn(C(F)F)c4)cc13)C2 (racemic) [Example 46, Rac-(3-(6-(1-(difluoromethyl)-1H-pyrazol-4-yl)pyrrolo[2,1-f][1,2,4]triazin-4-yl)-3,8-diazabicyclo[3.2.1]octan-8-yl)((1R,2R)-2-fluorocyclopropyl)methanone]
- IC50 [1]: 1230 nM
- IC50 [2]: 9740 nM
- IC50 [3]: 6110 nM
- IC50 [4]: 668 nM

SMILES: Cn1cc(-c2cc3c(N4CC5CCC(C4)N5C(=O)[C@H]4C[C@@H]4C#N)ncnn3c2)cn1 (racemic) [Example 66, Rac-(1S,2S)-2-(3-(6-(1-methyl-1H-pyrazol-4-yl)pyrrolo[2,1-f][1,2,4]triazin-4-yl)-3,8-diazabicyclo[3.2.1]octane-8-carbonyl)cyclopropane-1-carbonitrile]
- IC50 [1]: 1510 nM
- IC50 [2]: 3610 nM
- IC50 [3]: 5540 nM
- IC50 [4]: 242 nM

SMILES: Cn1cc(-c2cc3c(N4CC5CCC(C4)N5C(=O)[C@@H]4C[C@H]4F)ccnn3c2)ccc1=O [Example 172]
- IC50 [1]: 32 nM
- IC50 [2]: 54 nM
- IC50 [3]: 595 nM
- IC50 [4]: 2.6 nM

SMILES: Cc1cc(-c2cc3c(N4CC5CCC(C4)N5C(=O)[C@@H]4C[C@H]4F)ccnn3c2)ccn1 [Example 100, ((1S,2R)-2-fluorocyclopropyl)(3-(6-(2-methylpyridin-4-yl)pyrrolo[1,2-b]pyridazin-4-yl)-3,8-diazabicyclo[3.2.1]octan-8-yl)methanone]
- IC50 [1]: 26 nM
- IC50 [2]: 43 nM
- IC50 [3]: 756 nM
- IC50 [4]: 2.5 nM

SMILES: O=C(C1CC1)N1C2CCC1CN(c1ncnn3cc(-c4cnn(C5COC5)c4)cc13)C2 [Example 151]
- IC50 [1]: 3300 nM
- IC50 [2]: 4100 nM
- IC50 [3]: 3380 nM
- IC50 [4]: 239 nM

SMILES: O=C([C@@H]1C[C@H]1F)N1C2CCC1CN(c1ncnn3cc(-c4ccnc(C(F)F)c4)cc13)C2 [Example 93, (3-(6-(2-(difluoromethyl)pyridin-4-yl)pyrrolo[2,1-f][1,2,4]triazin-4-yl)-3,8-diazabicyclo[3.2.1]octan-8-yl)((1S,2R)-2-fluorocyclopropyl)methanone]
- IC50 [1]: 386 nM
- IC50 [2]: 591 nM
- IC50 [3]: 3300 nM
- IC50 [4]: 29.2 nM

SMILES: Cn1cc(-c2cc3c(N4CC5CCC(C4)N5C(=O)C4(C)CCC4)ncnn3c2)cn1 [Example 68, (3-(6-(1-methyl-1H-pyrazol-4-yl)pyrrolo[2,1-f][1,2,4]triazin-4-yl)-3,8-diazabicyclo[3.2.1]octan-8-yl)(1-methylcyclobutyl)methanone]
- IC50 [1]: 8700 nM
- IC50 [2]: 9180 nM
- IC50 [3]: 8670 nM
- IC50 [4]: 696 nM

SMILES: CC(F)(F)C(=O)N1C2CCC1CN(c1ncnn3cc(-c4cnn(C(F)F)c4)cc13)C2 [Example 56, 1-(3-(6-(1-(difluoromethyl)-1H-pyrazol-4-yl)pyrrolo[2,1-f][1,2,4]triazin-4-yl)-3,8-diazabicyclo[3.2.1]octan-8-yl)-2,2-difluoropropan-1-one]
- IC50 [1]: 1140 nM
- IC50 [2]: 3340 nM
- IC50 [3]: 1360 nM
- IC50 [4]: 233 nM

SMILES: O=C([C@@H]1C[C@H]1F)N1C2CCC1CN(c1ccnn3cc(-c4cnn(C(F)(F)F)c4)cc13)C2 [Example 18, ((1S,2R)-2-fluorocyclopropyl)(3-(6-(1-(trifluoromethyl)-1H-pyrazol-4-yl)pyrrolo[1,2-b]pyridazin-4-yl)-3,8-diazabicyclo[3.2.1]octan-8-yl)methanone]
- IC50 [1]: 38 nM
- IC50 [2]: 33 nM
- IC50 [3]: 391 nM
- IC50 [4]: 1.5 nM

SMILES: O=C([C@@H]1C[C@H]1F)N1C2CCC1CN(c1ccnn3cc(C4CCOC4)cc13)C2 (stereo partly drawn) [Example 175, ((1S,2R)-2-fluorocyclopropyl)(3-(6-(tetrahydrofuran-3-yl)pyrrolo[1,2-b]pyridazin-4-yl)-3,8-diazabicyclo[3.2.1]octan-8-yl)methanone]
- IC50 [1]: ≥ 10000 nM
- IC50 [2]: ≥ 10000 nM
- IC50 [3]: ≥ 10000 nM
- IC50 [4]: 847 nM

SMILES: COc1cc(-c2cc3c(N4CC5CCC(C4)N5S(=O)(=O)C4CC4)ccnc3[nH]2)ccn1 [Example 194]
- IC50 [1]: 116 nM
- IC50 [2]: 80 nM
- IC50 [3]: 612 nM
- IC50 [4]: 21 nM

SMILES: N#C[C@@H]1C[C@H]1C(=O)N1C2CCC1CN(c1ncnn3cc(-c4cnn(C(F)F)c4)cc13)C2 (single isomer, unassigned) [Example 78]
- IC50 [1]: 869 nM
- IC50 [2]: 1510 nM
- IC50 [3]: 6880 nM
- IC50 [4]: 120 nM

SMILES: COc1cc(-c2cc3c(N4CC5CCC(C4)N5C(=O)[C@@H]4C[C@H]4F)ccnn3c2)c(F)cn1 [Example 27, (3-(6-(5-fluoro-2-methoxypyridin-4-yl)pyrrolo[1,2-b]pyridazin-4-yl)-3,8-diazabicyclo[3.2.1]octan-8-yl)((1S,2R)-2-fluorocyclopropyl)methanone]
- IC50 [1]: 277 nM
- IC50 [2]: 325 nM
- IC50 [3]: 4000 nM
- IC50 [4]: 16 nM

SMILES: Cn1cc(-c2cc3c(N4CC5CCC(C4)N5C(=O)[C@@H]4C[C@H]4F)ncnc3[nH]2)cn1 [Example 235, ((1S,2R)-2-fluorocyclopropyl)(3-(6-(1-methyl-1H-pyrazol-4-yl)-7H-pyrrolo[2,3-d]pyrimidin-4-yl)-3,8-diazabicyclo[3.2.1]octan-8-yl)methanone]
- IC50 [1]: 117 nM
- IC50 [2]: 106 nM
- IC50 [3]: 338 nM
- IC50 [4]: 5.3 nM

SMILES: COc1cc(-c2cc3c(N4CC5CCC(C4)N5C(=O)[C@@H]4C[C@H]4F)ccnn3c2)ccn1 [Example 88, ((1S,2R)-2-fluorocyclopropyl)(3-(6-(2-methoxypyridin-4-yl)pyrrolo[1,2-b]pyridazin-4-yl)-3,8-diazabicyclo[3.2.1]octan-8-yl)methanone]
- IC50 [1]: 23 nM
- IC50 [2]: 46 nM
- IC50 [3]: 604 nM
- IC50 [4]: 1.9 nM

SMILES: Cn1cc(-c2cc3c(N4CC5CCC(C4)N5C(=O)[C@@H]4C[C@H]4C#N)ncnn3c2)cn1 (single isomer, unassigned) [Example 74]
- IC50 [1]: 1280 nM
- IC50 [2]: 1910 nM
- IC50 [3]: 4040 nM
- IC50 [4]: 126 nM

SMILES: O=C(C1CC(F)(F)C1)N1C2CCC1CN(c1ncnn3cc(-c4cnn(C(F)F)c4)cc13)C2 [Example 55, (3,3-difluorocyclobutyl)(3-(6-(1-(difluoromethyl)-1H-pyrazol-4-yl)pyrrolo[2,1-f][1,2,4]triazin-4-yl)-3,8-diazabicyclo[3.2.1]octan-8-yl)methanone]
- IC50 [1]: 2790 nM
- IC50 [2]: 7180 nM
- IC50 [3]: 8580 nM
- IC50 [4]: 290 nM

SMILES: O=C([C@H]1C[C@@H]1CO)N1C2CCC1CN(c1ncnn3cc(-c4cnn(C(F)F)c4)cc13)C2 (racemic) [Example 38, Rac-(3-(6-(1-(difluoromethyl)-1H-pyrazol-4-yl)pyrrolo[2,1-f][1,2,4]triazin-4-yl)-3,8-diazabicyclo[3.2.1]octan-8-yl)((1S,2S)-2-(hydroxymethyl)cyclopropyl)methanone]
- IC50 [1]: 1640 nM
- IC50 [2]: 8260 nM
- IC50 [3]: ≥ 10000 nM
- IC50 [4]: 326 nM

SMILES: COc1cc(-c2cc3c(N4CC5CCC(C4)N5C(=O)[C@@H]4C[C@H]4F)ncnn3c2)ccn1 [Example 89, ((1S,2R)-2-fluorocyclopropyl)(3-(6-(2-methoxypyridin-4-yl)pyrrolo[2,1-f][1,2,4]triazin-4-yl)-3,8-diazabicyclo[3.2.1]octan-8-yl)methanone]
- IC50 [1]: 236 nM
- IC50 [2]: 856 nM
- IC50 [3]: 4240 nM
- IC50 [4]: 28.2 nM

SMILES: O=C(C1CC1)N1C2CCC1CN(c1ccnc3[nH]c(-c4cnn(C(F)F)c4)nc13)C2 [Example 214, cyclopropyl(3-(2-(1-(difluoromethyl)-1H-pyrazol-4-yl)-3H-imidazo[4,5-b]pyridin-7-yl)-3,8-diazabicyclo[3.2.1]octan-8-yl)methanone]
- IC50 [1]: 94 nM
- IC50 [2]: 62 nM
- IC50 [3]: 346 nM
- IC50 [4]: 7.6 nM

SMILES: Cn1cc(-c2cc3c(N4CC5CCC(C4)N5C(=O)C4CC4)ncnn3c2)nn1 [Example 186, cyclopropyl(3-(6-(1-methyl-1H-1,2,3-triazol-4-yl)pyrrolo[2,1-f][1,2,4]triazin-4-yl)-3,8-diazabicyclo[3.2.1]octan-8-yl)methanone]
- IC50 [1]: ≥ 10000 nM
- IC50 [2]: 9850 nM
- IC50 [3]: ≥ 10000 nM
- IC50 [4]: 845 nM

SMILES: COc1ccc(-c2cc3c(N4CC5CCC(C4)N5C(=O)[C@@H]4C[C@H]4F)ccnn3c2)nn1 [Example 122, ((1S,2R)-2-fluorocyclopropyl)(3-(6-(6-methoxypyridazin-3-yl)pyrrolo[1,2-b]pyridazin-4-yl)-3,8-diazabicyclo[3.2.1]octan-8-yl)methanone]
- IC50 [1]: 308 nM
- IC50 [2]: 63 nM
- IC50 [3]: 940 nM
- IC50 [4]: 3.7 nM

From US20240360157A1, “TYK2 INHIBITORS” (BIOGEN MA INC., priority 2021, published 2024)
